# Values quoted from earlier work in US20250313559A1 (Bayer Aktiengesellschaft, priority 2024, published 2025).
# Entries after “also recorded” stand apart in the source; their conditions may differ.
# How the values were obtained:
# [1] = test system: patients with HF and LVEF 35%; conditions: EMPHASIS-HF; HFrEF; cited from earlier work
# patients with HFpEF = conditions: TOPCAT, global trial; cited from earlier work
# [2] = test system: patients with HF and LVEF 45%; conditions: TOPCAT; HFmrEF/HFpEF; cited from earlier work
# [3] = test system: patients with HF and left ventricular ejection fraction (LVEF) 35%; conditions: RALES; HFrEF; cited from earlier work
SMILES,Risk of death and hospitalization [1],primary composite endpoint (patients with HFpEF),Primary endpoint (first heart failure hospitalization or cardiovascular death) [2],Risk of death and hospitalization [3]
COC(=O)[C@@H]1CC2=CC(=O)CC[C@]2(C)[C@@]23O[C@@H]2C[C@@]2(C)[C@@H](CC[C@@]24CCC(=O)O4)[C@H]13 [eplerenone],decrease the risk of death and hospitalization,,,
CC(=O)S[C@@H]1CC2=CC(=O)CC[C@]2(C)[C@H]2CC[C@@]3(C)[C@@H](CC[C@@]34CCC(=O)O4)[C@H]12 [spironolactone],,did not reduce the primary endpoint; also recorded: did not demonstrate benefit,did not reduce the primary endpoint; also recorded: did not improve the primary outcome,decrease the risk of death and hospitalization
